Three compounds from patent US6737383B1, “Herbicidal oxadiazolidines” (priority 1999, dated 2004) can be followed below.

For orientation: melting point means the temperature of the solid-liquid transition.

Data set [1] has as its system barnyardgrass. Kind of data set: Test A barnyardgrass. As to conditions: 0 to 10 scale where 0 is no effect and 10 is complete control. It is filed as in vivo, Echinochloa crus-galli. Summed up: (§1)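 Ratings came from visual comparison with untreated plants about eleven days after treatment, scored 0 for no effect through 10 for complete control. Both soil-drench preemergence and runoff-spray postemergence applications were made at the same time.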

For data set [2], the system named is crabgrass. Nature of the data set: Test A crabgrass. The class given is in vivo, Digitaria spp. As to conditions: 0 to 10 scale where 0 is no effect and 10 is complete control. The procedure: Seeds of barnyardgrass (Echinochloa crus-galli), crabgrass (Digitaria spp.), morningglory (Ipomoea spp.), and velvetleaf (Abutilon theophrasti) were planted into a sandy loam soil and treated preemergence by soil drench with test chemicals formulated in a non-phytotoxic solvent mixture which includes a surfactant At the same time, these crop and weed species were also treated postemergence sprayed to runoff, with test chemicals formulated in the same manner.
Plants ranged in height from two to eighteen cm and were in the one to two leaf stage for the postemergence treatment. Treated plants and untreated controls were maintained in a greenhouse for approximately eleven days, after which all treated plants were compared to untreated controls and visually evaluated for injury. Plant response ratings, summarized in Table A, are based on a 0 to 10 scale where 0 is no effect and 10 is complete control.

Data set [3] deals with morningglory. Kind of data set: Test A morningglory. It is filed as in vivo, Ipomoea spp. The conditions noted are these: 0 to 10 scale where 0 is no effect and 10 is complete control. The essentials:
as §1

Data set [4] relates to velvetleaf. Nature of the data set: Test A velvetleaf. It is filed as in vivo, Abutilon theophrasti. As to conditions: 0 to 10 scale where 0 is no effect and 10 is complete control. Summed up:
as §1

For data set [5], the system named is Abutilon theophrasti (ABUTH). Kind of data set: Test F preemergence, alone and in mixture with rimsulfuron, ABUTH. It is filed as in vivo. The conditions noted are these: 21 days after treatment. The procedure:
(§2) Abutilon theophrasti (ABUTH), Chenopodium album (CHEAL), Amaranthus rudis (AMATA), Setaria faberii (SETFA), Panicum dichotomiflorum (PANDI), and Digitaria sanguinalis (DIGSA) were grown from seed in pots of an artificial potting mixture in a greenhouse. Compounds of the present invention were applied at 70 and 105 g ai/ha preemergence. Rimsulfuron was applied at 8.8 and 17.5 g ai/ha. Mixtures of the compounds of the present invention and rimsulfuron were also applied.
(§3) Following application, the plants were maintained by watering as needed. A fertilizer solution of Peter's 20-20-20 (10 pounds/5 gallons of water) plus Sprint 330, a Iron Chelate micronutrient, (113.5 grams/5 gallons of water) was injected into the water with an Anderson fertilizer injection system to provide approximately 219 ppm of nitrogen with each watering. Artificial lighting was used to supplement natural light to produce a 14 hour photoperiod and: an additional one hour light period was used between 1:00 am to 2:00 am for a night interruption. Greenhouse temperatures were targeted for 27° C. in the day and 21° C. at night. At 21 days after treatment, all plants were evaluated for injury as compared to control plants that were sprayed only with non-phytotoxic solvent.
(§4) Colby's equation was used to calculate the expected additive herbicidal effect of the mixtures of Compound 21 and the mixture partners listed above. […]

For data set [6], the system named is Chenopodium album (CHEAL). Nature of the data set: Test F preemergence, alone and in mixture with rimsulfuron, CHEAL. It is filed as in vivo. As to conditions: 21 days after treatment. The procedure: as §2, §3, §4
In data set [7] the test system is Amaranthus rudis (AMATA). Kind of data set: Test F preemergence, alone and in mixture with rimsulfuron, AMATA. The class given is in vivo. As to conditions: 21 days after treatment. The procedure:
as §2, §3, §4

Data set [8] concerns Setaria faberii (SETFA). Nature of the data set: Test F preemergence, alone and in mixture with rimsulfuron, SETFA. As to conditions: 21 days after treatment. The class given is in vivo. The protocol: as §2, §3, §4
Data set [9] concerns Panicum dichotomiflorum (PANDI). Kind of data set: Test F preemergence, alone and in mixture with rimsulfuron, PANDI. It is filed as in vivo. The conditions noted are these: 21 days after treatment. The procedure: as §2, §3, §4
In data set [10] the test system is Digitaria sanguinalis (DIGSA). Kind of data set: Test F preemergence, alone and in mixture with rimsulfuron, DIGSA. It is filed as in vivo. As to conditions: 21 days after treatment. The procedure: as §2, §3, §4
Data set [11] deals with maize hybrid P33G26. Nature of the data set: Test G maize injury with safener-treated seed. As to conditions: presence of dichlormid; with the exception of Compound 131 at the rate of 560 g/ha. Summed up: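 Maize hybrid P33G26 seed, treated with dichlormid, fenchlorazole-ethyl or naphthalic anhydride or left untreated, was sown in soil pots, then sprayed pre-emergence with several compound rates at 310 L/ha. Plants grew in a greenhouse (14 h day, about 27/24 °C day/night), with 4–5 replicates. Injury was scored visually against untreated controls 28 days after application.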

For data set [12], the system named is Pioneer hybrid P33G26 corn. Kind of data set: Test H corn injury, herbicide and safener mixtures applied to soil. The class given is in vivo. The conditions noted are these: safeners for Compound 113. The procedure: Mixtures of the herbicide and safeners were applied to pots of a soil mixture previously sown with corn. Pioneer hybrid P33G26 corn was sown in pots containing a sterile mix of 60% sassafras soil and 40% Metro Mix 360® growing medium (pH 6.7, O.M. 2%). Test compounds were dissolved in AGWT (a mixture of 0.25% Tween 20 surfactant, 5% water, 5% glycerin and 89.75% acetone) and sprayed on the soil as pots passed under a stationary 8002E nozzle. Treatments were applied at a 33 gal/acre rate of the AGWT carrier. After treatment, the test pots were placed in the greenhouse and watered. There were two replications for each treatment. Each pot contained eight corn seeds. The pots within each replication were placed in random positions on greenhouse benches. Test plants were fertilized as they were watered with approximately 200 ppm of N (as water soluble 20-20-20 fertilizer) which was metered into the water lines with a fertilizer injector. Daytime temperatures was 23-30° C. and night time temperature was 18-25° C. The test plants were supplemented with artificial lighting. The lights were activated whenever the natural light intensity dropped below the programmed threshold. Day length was maintained for approximately 14 hours.
The test was evaluated approximately 12 days after treatment. […]

[13] abbreviates: Alone: Cmpd. 0, Rimsulfuron rate 8.8.
Setting [14] is: Alone: Cmpd. 0, Rimsulfuron rate 17.5.

For the compound `CC(C)N(C(=O)n1oc(=O)[nH]c1=O)c1ccccc1` [Compound 386], the melting point is 116 to 117 °C. In [1] (Postemergence, Rate 1000 g/ha), the “Plant response rating, Barnyardgrass” value came to 0. For the same compound, the “Plant response rating, Barnyardgrass” value in data set [1] (Pre-emergence, Rate 2000 g/ha) worked out at 0. Further, in data set [2] (Postemergence, Rate 1000 g/ha), the “Plant response rating, Crabgrass” value is on record as 0. Moreover, in data set [2] (Pre-emergence, Rate 2000 g/ha), the “Plant response rating, Crabgrass” value is recorded as 0. For the same compound, in data set [3] (Postemergence, Rate 1000 g/ha), the “Plant response rating, Morningglory” value was determined as 0. In addition, the “Plant response rating, Morningglory” value in [3] (Pre-emergence, Rate 2000 g/ha) was found to be 0. Moreover, in [4] (Postemergence, Rate 1000 g/ha), the “Plant response rating, Velvetleaf” value is on record as 0. Further, in data set [4] (Pre-emergence, Rate 2000 g/ha), the “Plant response rating, Velvetleaf” value was found to be 0.
Take `CCS(=O)(=O)c1cccnc1S(=O)(=O)NC(=O)Nc1nc(OC)cc(OC)n1` [rimsulfuron]: the “ABUTH Observed” value stood at 20% in data set [5] (setting [13]) and 40% in data set [5] (setting [14]). For the same compound, the “CHEAL Observed” value in data set [6] (setting [13]) was 25%; in data set [6] (setting [14]), 60%. Further, the “AMATA Observed” value was 10% in data set [7] (setting [13]) and 15% in data set [7] (setting [14]). In addition, the “SETFA Observed” value in data set [8] (setting [13]) is 75%; in data set [8] (setting [14]) it was 90%. For the same compound, the “PANDI Observed” value in [9] (setting [13]) stood at 75%; in data set [9] (setting [14]), 95%. Further, the “DIGSA Observed” value is listed as 95% in data set [10] (setting [13]) and 100% in data set [10] (setting [14]).
Regarding `C=CCN(CC=C)C(=O)C(Cl)Cl` [dichlormid, reference compound], the “Safening effect on maize injury” value in [11] is “reduced the injury to an insignificant level”. For the same compound, the “Safening of Compound 113 on corn” value in data set [12] is reported as “functioned very effectively as safeners”.
